Test results: patent publication US11092596B2, “Material and method to screen proteasome stimulators” (Purdue Research Foundation, priority 2017, dated 2021)
pEC50: −log10 of the molar value. Where a name gives a salt, the structure may show the parent alone. Each block holds one molecule with its values, some of them ahead of it.

How the values were obtained:
[1] = target: T1, chymotrypsin-like activity of the 20S CP (Homo sapiens, UniProt P28074); test: Kinetic assay, CT-L FRET reporter hydrolysis by purified 20S CP; format: biochemical; conditions: for increase in the rate of hydrolysis (CT-L FRET reporter): 9 nM 20S CP, vs basal
T1 construct: 5 μL purified 20S proteasome (90 nM in Tris-HCl) was added to the control and test wells
Procedure: (§1) Plate preparation for the kinetic assay was performed similarly for all assays. All 96-well plates contained the following in triplicate: reporter background, containing reporter only, and control wells, containing reporter and purified 20S CP. It was determined that each well will contain a total volume of 50 μL. To each well was added 40 μL of the coumarin or FRET reporters (in Tris-HCl, 50 mM, pH 7.7). To the reporter background wells was added 7.5 μL Tris-HCl and 2.5 μL of the solvent in which the compound of interest was dissolved or diluted. Similarly, to the control wells was added 2.5 μL Tris-HCl and 2.5 μL of the solvent in which the compound of interest was dissolved or diluted. To the test wells was added 2.5 μL Tris-HCl and 2.5 μL of the compound of interest at a predetermined concentration. Immediately prior to running the assay on the Synergy 4 Plate Reader, 5 μL purified 20S proteasome (90 nM in Tris-HCl) was added to the control and test wells.
(§2) The Synergy 4 Plate Reader was set to heat the plate at 37° C. and read fluorescence every 2 min over a 40 min period. The excitation and emission wavelengths were set according to the reporter. For the FRET reporter, the excitation and emission wavelengths were set to 335 nm and 493 nm, respectively, corresponding to the excitation and emission wavelengths of the Edans fluorophore. For the coumarin reporter, the excitation and emission wavelengths were set to 380 nm and 460 nm, respectively.
(§3) AM-404 was used as a positive control compound to test the dose-response screening capabilities of the CT-L FRET reporter. The following concentrations of AM-404 were tested in triplicate: 50, 25, and 12.5 μM. To each well was added 40 μL 20 μM CT-L FRET (in Tris-HCl, 50 mM, pH 7.7). To the reporter background wells was added 5 μL Tris-HCl and 5 μL 1:1 Tris-HCl:DMSO. Similarly, to the control wells was added 5 μL 1:1 Tris-HCl:DMSO. To the 50 μM AM-404 test wells was added 2.5 μL Tris-HCl and 2.5 μL 1000 μM AM-404 in DMSO. To the 25 μM AM-404 test wells was added 2.5 μL Tris-HCl and 2.5 μL 500 μM AM-404 in DMSO. To the 12.5 μM AM-404 test wells was added 2.5 μL Tris-HCl and 2.5 μL 250 μM AM-404 in DMSO. Immediately prior to running the assay on the Synergy 4 Plate Reader, 5 μL purified 20S proteasome (90 nM in Tris-HCl) was added to the control and test wells. The assay was performed using the Synergy 4 plate reader as described for the general screening kinetic assay procedure.
as §3, with “Fenofibrate was” for “AM-404 was”, “a negative” for “a positive”, “of fenofibrate” for “of AM-404”, “μM fenofibrate” for “μM AM-404”, “procedure. […]” for “procedure.”

[2] = target: T2, trypsin-like activity of the 20S CP (Homo sapiens, UniProt Q99436); test: Kinetic assay, Bz-VGR-AMC reporter hydrolysis by purified 20S CP; format: biochemical; conditions: 500 μM SDS
Procedure: as §1, with “To the test wells was added 2.5 μL Tris-HCl and 2.5 μL of the compound of interest at a predetermined concentration.” left out
The Synergy 4 Plate Reader was set to heat the plate at 37° C. and read fluorescence every 2 min over a 40 min period. […]
(§4) Stimulation of the 20S proteasome with SDS was determined using both the coumarin and FRET reporters for the chymotrypsin-like and trypsin-like activities of the 20S CP. […] Immediately prior to running the assay on the Synergy 4 Plate Reader, 5 μL purified 20S proteasome (90 nM in Tris-HCl) was added to the control and test wells. […]

[3] = target: T1, chymotrypsin-like activity of the 20S CP; test: Kinetic assay, Suc-LLVY-AMC reporter hydrolysis by purified 20S CP; format: biochemical
Procedure: as §1
as §2, with “For the coumarin reporter, the excitation and emission wavelengths were set to 380 nm and 460 nm, respectively.” left out
Sodium dodecyl sulfate (SDS) was used to test the effect stimulating the 20S proteasome has on the hydrolysis of the FRET reporters. The appropriate concentration of SDS to use in the kinetic assay was determined using the small chymotrypsin-like activity reporter, Suc-LLVY-AMC (SEQ ID NO: 4). […] In triplicate, the following final concentrations of SDS were analyzed for the effect each has on the activity of the 20S proteasome: 4000 μM, 2000 μM, 1000 μM, 500 μM, 250 μM, 125 μM, and 0 μM, the basal activity of the 20S proteasome. […] Immediately prior to reading the plate with the Synergy 4 plate reader, 5 μL purified 20S proteasome (90 nM in Tris-HCl) was added to the wells at a final concentration of 9 nM per well.
The Synergy 4 Plate Reader was set to heat the plate at 37° C. and read fluorescence every 2 min over a 1 hr period. […] The resulting data in relative fluorescence units (RFU) was analyzed using GraphPad Prism and was plotted against time in minutes. […] Based on the resulting curve and the hyperbolic curve obtained using 1000 μM SDS (FIG. 11b), it was determined that 500 μM SDS was the appropriate concentration to use to test the effect stimulating the 20S proteasome has on the hydrolysis of the FRET reporters.
Stimulation of the 20S proteasome with SDS was determined using both the coumarin and FRET reporters for the chymotrypsin-like and trypsin-like activities of the 20S CP. […]

[4] = target: T2, trypsin-like activity of the 20S CP; test: Kinetic assay, T-L FRET reporter hydrolysis by purified 20S CP; format: biochemical; conditions: 500 μM SDS
Procedure: as §1
as §2, with “For the coumarin reporter, the excitation and emission wavelengths were set to 380 nm and 460 nm, respectively.” left out
as §4, with “wells. The assay was performed using the Synergy 4 plate reader as described for the general screening kinetic assay procedure.” for “wells.”
To each well was added 40 μL 20 μM T-L FRET reporter (in Tris-HCl, 50 mM, pH 7.7). […] Immediately prior to running the assay on the Synergy 4 Plate Reader, 5 μL purified 20S proteasome (90 nM in Tris-HCl) was added to the control and test wells.

[5] = tested on: T3, chymotrypsin-like FRET reporter (CT-L FRET), Lys(Y1)-Met-Ser-Gly-Phe-Ala-Ala-Thr-Ala-Glu(Y2)-Gly
T3 sequence: KMSGFAATAEG

[6] = tested on: T4, Suc-LLVY-AMC
T4 sequence: LLVY

[7] = tested on: 26S proteasome; conditions: at concentrations as low as 5 μM; cited from earlier work
[8] = target: 20S CP (Homo sapiens, UniProt P28074); conditions: in cellulo, Suc-LLVY-AMC reporter, previously reported; read-out: EC50 as 20S CP stimulator; cited from earlier work

decrease in the rate of hydrolysis of the CT-L FRET reporter ([1]; 2 μM bortezomib): 40%
Molecule: CC(C)C[C@H](NC(=O)[C@H](Cc1ccccc1)NC(=O)c1cnccn1)B(O)O [bortezomib]

Molecule: CCCCCCCCCCCCOS(=O)(=O)[O-].[Na+] [SDS, sodium dodecyl sulfate]
increase in the rate of hydrolysis of Bz-VGR-AMC compared to basal activity [2]: 2 fold
increase in the rate, Suc-LLVY-AMC reporter ([3]; 500 μM SDS vs basal): 2.4 fold
average rate of hydrolysis, Suc-LLVY-AMC reporter ([3]; 500 μM SDS, basal 60 ΔRFU/min): 145 ΔRFU/min
increase in the rate of hydrolysis of T-L FRET reporter compared to basal activity [4]: 5 fold
increase in the rate, CT-L FRET reporter ([1]; 500 μM SDS vs basal): 8.3 fold
average rate of hydrolysis, CT-L FRET reporter ([1]; 500 μM SDS, basal 2.9 ΔRFU/min): 24 ΔRFU/min

Molecule: 20S core particle (20S CP) of the proteasome
Mean Signal (Rate), Basal (background) activity of the 20S CP [5]: 5.3
rate of hydrolysis (average basal level, no stimulator) [5]: 2.9 ΔRFU/min
rate of hydrolysis (average basal level, no stimulator) [6]: 60 ΔRFU/min

Molecule: O=C(O)c1cc(O)c2c(c1)[C@@H]([C@H]1c3cc(C(=O)O)cc(O)c3C(=O)c3c(O[C@@H]4O[C@H](CO)[C@@H](O)[C@H](O)[C@H]4O)cccc31)c1cccc(O[C@@H]3O[C@H](CO)[C@@H](O)[C@H](O)[C@H]3O)c1C2=O [Compound 4, Sennoside B]
validation of primary hits in triplicate ([1]; 25 μM, newly purchased compound, CT-L FRET reporter): did not perform as it had in the initial screen

Molecule: CN(C)C(=O)C(CCN1CCC(O)(c2ccc(Cl)cc2)CC1)(c1ccccc1)c1ccccc1 [Loperamide HCl]
stimulation of the 26S proteasome [7]: stimulate the 26S proteasome

Molecule: CCCCC/C=C\C/C=C\C/C=C\C/C=C\CCCC(=O)Nc1ccc(O)cc1 [AM-404]
pEC50 [8]: ~4.49
increase in the rate of hydrolysis (CT-L FRET reporter) ([1]; 12.5 μM compound (lowest concentration tested)): 4 fold
increase in the rate of hydrolysis (CT-L FRET reporter) ([1]; 25.0 μM compound): 5 fold
increase in the rate of hydrolysis (CT-L FRET reporter) ([1]; 50.0 μM compound): 7 fold
Mean Signal (Rate) ([1]; CT-L FRET reporter, 20S CP, basal 5.300): 40.46
dose dependence of 20S CP stimulation ([1]; CT-L FRET reporter, dose response curve): dose-dependent
